Reference: US7892767B2, “Phosphospecific chemokine receptor antibodies” (Washington University in St. Louis, priority 2005, dated 2011)

Key:
[1] = system: PDE4A-expressing U87 cells; assay: Viable cell number, PDE4A-expressing U87 cells; type: cell-based, human; details: CXCL12 1 μg/ml, AMD 3465 2.5 μg/ml, Rolipram 200 μM
Protocol: (§1) PDE4A expression. U87 and Daoy cells (15,000 cells) were transiently transfected for 48 h with a plasmid encoding a transgene for the tet-off transactivator (tTA) alone (kind gift from Dr. Louis Muglia, Washington University School of Medicine, St. Louis, Mo.), a plasmid containing a transgene for tet-off regulated expression of phosphodiesterase 4A (PDE4A) alone (kind gift from Dr. James Cherry, Boston University, Boston, Mass.), or a combination of both plasmids, using lipofectamine (Invitrogen) according to the manufacturer's instructions. Plasmid DNA (2 μg) was mixed with lipofectamine (5 μl) per 35 mm^2 dish. Transfection proceeded for 9 hours prior to exchanging transfection media for αMEM supplemented with 10% FCS.

CXCR4 = CXCR4 (Homo sapiens, UniProt P61073); details: compared with AMD 3100, reference (84); cited from earlier work
Chain of CXCR4 (P61073 whole entry, species assumed): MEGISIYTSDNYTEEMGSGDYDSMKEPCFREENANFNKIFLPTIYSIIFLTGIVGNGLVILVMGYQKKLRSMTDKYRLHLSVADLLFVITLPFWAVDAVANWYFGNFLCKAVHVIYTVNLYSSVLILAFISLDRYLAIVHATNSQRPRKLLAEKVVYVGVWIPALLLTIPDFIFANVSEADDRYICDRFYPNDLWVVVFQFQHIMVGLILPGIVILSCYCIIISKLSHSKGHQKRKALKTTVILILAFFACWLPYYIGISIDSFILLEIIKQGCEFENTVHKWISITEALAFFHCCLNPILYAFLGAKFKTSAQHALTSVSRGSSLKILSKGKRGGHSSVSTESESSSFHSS

U87 GBM xenografts = assay: Intracranial U87 xenograft growth by bioluminescence imaging; type: in vivo, mouse
[2] = system: PDE4A-expressing Daoy cells; assay: Viable cell number, PDE4A-expressing Daoy cells; type: cell-based, human; details: CXCL12 1 μg/ml, AMD 3465 2.5 μg/ml, Rolipram 200 μM
Protocol: as §1

U87 glioblastoma cells [3] = assay: Viable cell number by trypan blue exclusion, U87 cells; type: cell-based, human; details: Rolipram 200 μM, AMD 3465 2.5 μg/ml; for effect on CXCL12 induced growth: with CXCL12 1 μg/ml, Forskolin 10 μM
Protocol: (§2) Brain tumor cell cultures. Cells were cultured in αMEM (Invitrogen, Carlsbad, Calif.) supplemented with 10% FCS (Biomedia, Foster City, Calif.) in the presence of penicillin streptomycin at 37° C. with 5% CO2.
(§3) Growth factor and drug treatment. Following serum-starvation for 24 hours, astrocytes, granule cells, U87 cells and Daoy cells, were treated with 1 μg/ml CXCL12 (PeproTech), […] AMD3465 (kind gift from Simon Fricker, AnorMED, Langley, BC, Canada) (200 μM Rolipram (Sigma), or 10 μM Forskolin (Sigma) as indicated.

Daoy xenografts [4] = assay: cAMP in xenograft tumor tissue by ELISA; type: in vivo, mouse; details: same treatment paradigms as growth studies, EGFP-luciferase xenografts
Protocol: cAMP measurement in tumor tissue. EGFP-expressing tumor tissue was removed under direct fluorescence microscopy and frozen in liquid nitrogen. Frozen tissue was weighed and homogenized with 10 volumes of 10% ice-cold trichloroacetic acid, then centrifuged for 10 min at 4000 rpm to remove precipitate. The supernatant was washed three times with 8 volumes of water-saturated ether. The aqueous phase was dried down and resuspended in cAMP assay buffer.
(§4) Determination of cAMP concentration. Competitive immunoassay for cAMP concentration was performed exactly as directed by the manufacturer. Absorbance at 405 nm was measured and cAMP concentrations were determined by calculation based on a standard curve. Protein concentrations were measured by colormetric assay (Bio-Rad, Hercules, Calif.) according to the manufacturer's directions. cAMP values were normalized to protein for each sample individually.
To ascertain whether the in vivo anti-tumor effects of Rolipram and AMD 3465 were correlated with increases in intratumoral cAMP, we repeated the treatment paradigms with Daoy xenografts that had been engineered to express both enhanced green fluorescent protein (EGFP) and firefly luciferase. […] Tumor tissue was easily visualized in situ under direct fluorescence microscopy (FIG. 20A). Cyclic AMP was extracted from GFP positive tissue, and cAMP levels were measured by ELISA.

U87 glioblastoma cells [5] = assay: Intracellular cAMP by ELISA, U87 glioblastoma cells; type: cell-based, human
Protocol: as §3
(§5) cAMP measurement in cell culture. cAMP concentration was measured using a Correlated-EIA™. Enzyme Immunoassay Kit (Assay Designs Inc. MI) according to the manufacturer's instructions. Briefly, U87 or Daoy cells were serum-starved for 24 hours, and treated with CXCL12 (1 μg/ml), Rolipram (200 μM), or forskolin (10 μM). Cells were lysed in 0.1M HCL and particulate matter was removed by centrifugation at >600×g for 10 min. The supernatants were dried down and resuspended in assay buffer.
as §4

[6] = system: Daoy medulloblastoma cells; assay: Viable cell number by trypan blue exclusion, Daoy cells; type: cell-based, human; details: Rolipram 200 μM, AMD 3465 2.5 μg/ml; for effect on CXCL12 induced growth: with CXCL12 1 μg/ml, Forskolin 10 μM
Protocol: as §2, §3

Daoy xenografts [7] = assay: Intracranial Daoy xenograft growth by bioluminescence imaging; type: in vivo, mouse
[8] = system: Daoy medulloblastoma cells; assay: Intracellular cAMP by ELISA, Daoy medulloblastoma cells; type: cell-based, human
Protocol: as §3, §5, §4

[9] = added to chemotherapy and radiation therapy; decreased consciousness and increased seizure activity; reference (109); cited from earlier work
[10] = Tolerability in xenograft-bearing mice; type: in vivo, mouse; details: 5 μg/g/day in the drinking water
[11] = in vivo; cited from earlier work
[12] = continuous subcutaneous infusion 50 μg/day (2.5 mg/kg/day) for 5 weeks
[13] = AMD 3465 2.5 μg/ml coadministered with CXCL12 1 μg/ml
[14] = 5 μg/g/day in the drinking water, from two weeks after tumor cell injection
[15] = Rolipram 200 μM or Forskolin 10 μM, not abrogated by CXCL12

SMILES: c1ccc(CNCc2ccc(CN3CCCNCCNCCCNCC3)cc2)nc1 [AMD 3465]
- effect on cell number [1]: no effect
- affinity for CXCR4 (CXCR4): greater affinity
- inhibition of xenograft growth as compared to controls (U87 GBM xenografts; [12]): 80%
- effect on cell number [2]: no effect
- effect on cell number alone (U87 glioblastoma cells [3]): no significant effect
- effect on CXCL12 induced growth (U87 glioblastoma cells [3]): completely blocked
- amount of cAMP within tumor tissue (Daoy xenografts [4]): significant increase
- effect on cAMP levels alone (U87 glioblastoma cells [5]; AMD 3465 2.5 μg/ml): little to no effect
- CXCL12-induced suppression of cAMP (U87 glioblastoma cells [5]; [13]): blocked
- effect on cell number alone [6]: no significant effect
- effect on CXCL12 induced growth [6]: completely blocked
- inhibition of xenograft growth as compared to controls (Daoy xenografts [7]; [12]): 85%
- effect on cAMP levels alone ([8]; AMD 3465 2.5 μg/ml): little to no effect
- CXCL12-induced suppression of cAMP [8, 13]: blocked

SMILES: CC(=O)CCCCn1c(=O)c2c(ncn2C)n(C)c1=O [Pentoxiphyllin]
- toxicity [9]: excessive toxicity

SMILES: COc1ccc(C2CNC(=O)C2)cc1OC1CCCC1 (centres unmarked) [Rolipram]
- effect on cell number [1]: growth inhibitory effect
- inhibition of xenograft growth (U87 GBM xenografts; [14]): 96%
- animal weights compared to the control group ([10]; data not shown): better maintained
- appearance of treated animals ([10]; throughout the treatment period): appeared well
- effect on cell number [2]: growth inhibitory effect
- effect on cell number alone (U87 glioblastoma cells [3]): little to no effect
- effect on CXCL12 induced growth (U87 glioblastoma cells [3]): completely blocked
- blood brain barrier passage [11]: crosses an intact blood brain barrier
- amount of cAMP within tumor tissue (Daoy xenografts [4]): significant increase
- change in intracellular cAMP (U87 glioblastoma cells [5]; [15]): predictable increases
- effect on cell number alone [6]: little to no effect
- effect on CXCL12 induced growth [6]: completely blocked
- inhibition of xenograft growth (Daoy xenografts [7]; [14]): 58%
- change in intracellular cAMP [8, 15]: predictable increases
